Data: US7175853B1, “Therapeutic system which can be moisture-activated” (LTS Lohmann Therapie-Systeme AG, priority 1998, dated 2007)

Experiment: Dehydration behaviour of activators by Difference Scanning Calorimetry (DSC)
Type: physicochemical
Details: FIG. 14a-c
From the text: The dehydration behaviour of these substances was examined in three example substances by Difference Scanning Calorimetry (DSC). This thermal analysis provides information on the stages of dehydration taking place under energy absorption, and on the respective typical temperature.

dehydration temperature: 86.5 °C
SMILES: O.O.O.O.O.O=[Si]([O-])[O-].[Na+].[Na+] [Na2SiO3.5H2O, sodium metasilicate pentahydrate]
